The target in this experiment is T1, tubulin (alpha/beta heterodimer).
T1 construct: tubulin purified from goat brain; with alpha-tubulin/beta-tubulin heterodimer
Kind of experiment: Ligand fluorescence enhancement titration (Scatchard, Job plot […]); tryptophan quenching gave Kd […]; polymerization IC50 […]. Type of experiment: binding, Capra hircus.

In paper PMC3792137, “NMK-TD-100, a Novel Microtubule Modulating Agent, Blocks Mitosis and Induces Apoptosis in HeLa Cells by Binding to Tubulin” (PLoS ONE, 2013) one finds Kd data, which are given here for one molecule.

What is called Kd is the concentration at which binding is half-saturated. With `COc1cc(-c2nnc(-c3c[nH]c4ccccc34)s2)cc(OC)c1OC` [NMK-TD-100], the equilibrium dissociation constant (Kd) was found to be 1260 ± 320 nM.
